Measured values published in PMC10353390, “Biological and Structural Analyses of New Potent Allosteric Inhibitors of HIV-1 Integrase” (Antimicrobial Agents and Chemotherapy, 2023).
Where two headings read alike, the source gives them in different places.

Assays:
HIV-1 IN = molecular target: T1, HIV-1 IN (Human immunodeficiency virus type 1 group M subtype B, UniProt P12497); experiment: HTRF IN multimerization assay; type: biochemical; conditions: mean ± SD
T1 construct: made in house
Excerpt: A key property of INLAIs is the ability to promote HIV-1 IN homo-multimerization ([39][–][42]). […] The maximal signal (plateau) in our IN aggregation assay corresponds to the highest HTRF signal increase under saturating INLAI concentration, relative to baseline level. Thus, MUT916, MUT884, MUT871, and MUT872 increased HIV-1 IN aggregation 3.7 to 4.4-fold, while BDM-2, BI-224436, and S-I-82 did so 5 to 6-fold (Table 1).

HXB2 HIV-1 strain = experiment: Multiple-round infection assay in MT4 cells, HXB2; type: cell-based; conditions: Human immunodeficiency virus 1, HXB2; multiple-round infection, MT4 cells; mean ± SD, n > 5; read-out: EC50 HXB2
How it was run: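 Antiviral read-out was CellTiter-Glo luminescent viability of exponentially growing MT4 cells (10^6/mL). Cells were exposed to HIV-1 for 2 h at an MOI of 0.001 while compound was present at varying concentrations.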

NL4-3 HIV-1 strain = experiment: Multiple-round infection assay in MT4 cells, NL4-3; type: cell-based; conditions: MT4 cells
[1] = Cytotoxicity assay in MT4 cells; type: cell-based; conditions: human, MT4 cells (proliferating human T-cell line), CellTiter-Glo
Excerpt: Growth inhibition was monitored in a proliferating human T-cell line (MT4) with different concentrations of compounds, using the CellTiter-Glo luminescent reagent (Promega), as previously described ([12]).

[2] = test system: lab-adapted and clinical HIV-1 isolates; experiment: Infection assays in primary T CD4+ lymphocytes; type: cell-based; conditions: Human immunodeficiency virus 1, Lymphocyte
[3] = test system: VSV-G-pseudotyped NL4-3Δenv-luc; experiment: microbe, parasite or virus in culture; type: cell-based, HIV-1
[4] = test system: recombinant NL4-3 viruses with polymorphisms at IN positions 124 and 125; experiment: Multiple-round infection of MT4 cells with recombinant NL4-3 viruses polymorphic at IN positions 124 and 125; type: cell-based, HIV-1
Excerpt: Located on the HIV-1 IN CCD dimerization interface, the principal INLAI binding pocket overlaps with a hot spot of amino acid sequence polymorphism involving IN residues 124 and 125 ([16]). To test if the new INLAIs maintained antiviral activity against major polymorphisms, we introduced all major combinations of residues found in circulating HIV-1 strains at positions 124 and 125 into NL4-3 HIV-1 molecular clone. In total, we evaluated 15 such combinations that collectively covered 98% of all HIV-1 clade polymorphisms involving these positions ([48]). To gauge effects on the antiviral activity, we calculated the EC50 fold change (FC) relative to wild type NL4-3 HIV-1 strain that features Thr124 and Thr125 (TT; specific polymorphisms are referred to by a single letter amino acid code).
(§1) MT4 cells growing exponentially at the density of 10^6/mL were infected with HIV-1 strain NL4-3 at a multiplicity of infection (MOI) of 0.001 for 2 h in the presence of different concentrations of compounds, and the CellTiter-Glo luminescent reagent (Promega) was used to quantify cell viability as described previously ([12]).

[5] = test system: primary HIV-1 isolates with polymorphisms at IN positions 124 and 125; experiment: Multiple-round infection of MT4 cells with primary HIV-1 isolates polymorphic at IN positions 124 and 125; type: cell-based; conditions: primary isolate
Procedure: Next, we evaluated the potency of the BDM-2 series of INLAIs against several primary HIV-1 isolates with polymorphisms at IN positions 124 and 125.
as §1

[6] = test system: HIV-1 strains resistant to INSTIs, NRTIs, NNRTIs or PIs; type: cell-based
How it was run: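 Cell viability (CellTiter-Glo luminescence) served as read-out in MT4 cells at 10^6/mL, infected 2 h at MOI 0.001 in presence of graded compound concentrations. Viruses: resistance-mutation recombinants in NL4-3 backbone plus resistant clinical isolates.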

[7] = test system: NL4-3 HIV-1 with INLAI-selected IN single point mutations; type: cell-based
[8] = molecular target: HIV-1 IN-LEDGF/p75 interaction (Human immunodeficiency virus type 1 group M subtype B, UniProt P12497); experiment: biochemical
[9] = molecular target: CCD of HIV-1 IN and IBD of LEDGF/p75 (Human immunodeficiency virus type 1 group M subtype B, UniProt P12497); experiment: biochemical
Procedure: The INLAIs were tested for the ability to inhibit the HIV-1 IN-LEDGF/p75 interaction in a homogeneous time-resolved fluorescence (HTRF) assay. Our assays used either full-length IN and LEDGF/p75 proteins or their respective minimally sufficient interaction domains: the CCD of HIV-1 IN and the IBD of LEDGF/p75 (Table 1).
HTRF-based CCD-IBD interaction, IN-LEDGF/p75 interaction and IN multimerization assays were performed as described previously ([12]).

[10] = INSTI-resistant, NL4-3 background

## Cc1ccc(C2CC2)c(-c2ccc3c(c2C)CCCO3)c1[C@H](OC(C)(C)C)C(=O)O [MUT871]
HIV-1 IN; concentration for 50% maximum activation of multimerization
  AC50: 31 ± 20 nM
HIV-1 IN; maximum multimerization reached versus baseline
  IN multimerization Plateau: 440 ± 53%
HXB2 HIV-1 strain
  EC50: 1.4 ± 0.3 nM
NL4-3 HIV-1 strain; Human immunodeficiency virus 1, NL43, multiple-round infection, from dose response curves, read-out: EC90 NL4-3
  EC90: 4.6 ± 1.6 nM
NL4-3 HIV-1 strain; Human immunodeficiency virus 1, NL43, multiple-round infection, mean ± SD, n > 5, read-out: EC50 NL4-3
  EC50: 3.1 ± 1 nM
NL4-3 HIV-1 strain
  Selectivity index CC50/EC50 NL4-3: 14,838
[1]
  CC50: 46000 ± 11000 nM
[2]; read-out: EC50 33913N (B)
  EC50: 1.5 ± 0.6 nM
[2]; read-out: EC50 HXB2 (B)
  EC50: 1.8 ± 0.3 nM
[2]; read-out: EC50 KER2008 (A)
  EC50: 6.4 ± 1.3 nM
[2]; read-out: EC50 NL4-3 (B)
  EC50: 2.8 ± 0.5 nM
[2]; read-out: EC50 NP1525 (CRF01_AE)
  EC50: 3.5 ± 0.6 nM
[2]; read-out: EC50 NP1538 (B)
  EC50: 4 ± 2.3 nM
[3]
  EC50 ratio (single/multiple-round infection): 203
[3]; Human immunodeficiency virus 1, NL43, MT4, read-out: EC50 in single-round infection
  EC50: 630 ± 10 nM
[4]; recombinant NL4-3, IN 124/125 AA
  Fold change in EC50 relative to parental NL4-3, AA: 1
[4]; recombinant NL4-3, IN 124/125 AM
  Fold change in EC50 relative to parental NL4-3, AM: 0.4
[4]; recombinant NL4-3, IN 124/125 AT
  Fold change in EC50 relative to parental NL4-3, AT: 1
[4]; recombinant NL4-3, IN 124/125 AV
  Fold change in EC50 relative to parental NL4-3, AV: 1
[4]; recombinant NL4-3, IN 124/125 GA
  Fold change in EC50 relative to parental NL4-3, GA: 3
[4]; recombinant NL4-3, IN 124/125 GT
  Fold change in EC50 relative to parental NL4-3, GT: 2
[4]; recombinant NL4-3, IN 124/125 NA
  Fold change in EC50 relative to parental NL4-3, NA: 2
[4]; recombinant NL4-3, IN 124/125 NT
  Fold change in EC50 relative to parental NL4-3, NT: 1
[4]; recombinant NL4-3, IN 124/125 NV
  Fold change in EC50 relative to parental NL4-3, NV: 1
[4]; recombinant NL4-3, IN 124/125 SA
  Fold change in EC50 relative to parental NL4-3, SA: 1
[4]; recombinant NL4-3, IN 124/125 ST
  Fold change in EC50 relative to parental NL4-3, ST: 1
[4]; recombinant NL4-3, IN 124/125 TA
  Fold change in EC50 relative to parental NL4-3, TA: 1
[4]; recombinant NL4-3, IN 124/125 TM
  Fold change in EC50 relative to parental NL4-3, TM: 0.3
[4]; recombinant NL4-3, IN 124/125 TV
  Fold change in EC50 relative to parental NL4-3, TV: 1
[5]; IN 124/125 AA
  Fold change in EC50 relative to parental NL4-3, CAM2BBY (CRF02): 2
  Fold change in EC50 relative to parental NL4-3, E0836M4 (D): 2
  Fold change in EC50 relative to parental NL4-3, KER2008 (A): 1
  Fold change in EC50 relative to parental NL4-3, NP1525 (CRF01): 1
  Fold change in EC50 relative to parental NL4-3, NP1695 (CRF02): 3
  Fold change in EC50 relative to parental NL4-3, TZA125 (C): 1
[5]; IN 124/125 GA
  Fold change in EC50 relative to parental NL4-3, KSM4030 (A): 2
  Fold change in EC50 relative to parental NL4-3, vGA (C): 5
[5]; IN 124/125 NA
  Fold change in EC50 relative to parental NL4-3, 99ET14 (C): 2
  Fold change in EC50 relative to parental NL4-3, NP1538 (B): 2
  Fold change in EC50 relative to parental NL4-3, vNA_1 (B): 3
  Fold change in EC50 relative to parental NL4-3, vNA_2 (CRF02): 3
[5]; IN 124/125 NV
  Fold change in EC50 relative to parental NL4-3, vNV (B): 3
[5]; IN 124/125 SA
  Fold change in EC50 relative to parental NL4-3, vSA_1 (B): 4
  Fold change in EC50 relative to parental NL4-3, vSA_2 (CRF02): 3
[5]; IN 124/125 TA
  Fold change in EC50 relative to parental NL4-3, vTA_1 (B): 2
  Fold change in EC50 relative to parental NL4-3, vTA_2 (CRF02): 2
[6]; [10]
  Fold change in EC50 relative to NL4-3, E92Q: 1
  Fold change in EC50 relative to NL4-3, G140S: 1
  Fold change in EC50 relative to NL4-3, G140S/Q148H: 1
  Fold change in EC50 relative to NL4-3, N155H: 1
  Fold change in EC50 relative to NL4-3, Q148H: 1
  Fold change in EC50 relative to NL4-3, Y143R: 1
[6]; NRTI-resistant clone
  Fold change in EC50 relative to NL4-3, NLAY351717: 1
[6]; NRTI/NNRTI-resistant clone
  Fold change in EC50 relative to NL4-3, NLAY351753: 1
[6]; NRTI/NNRTIs group, NL4-3 background
  Fold change in EC50 relative to NL4-3, K103N/Y181C: 1
[6]; PI-resistant virus
  Fold change in EC50 relative to NL4-3, ARP-4595: 1
  Fold change in EC50 relative to NL4-3, ARP-4596: 1
  Fold change in EC50 relative to NL4-3, ARP-11801: 1
  Fold change in EC50 relative to NL4-3, ARP-11803: 1
  Fold change in EC50 relative to NL4-3, ARP-11807: 1
  Fold change in EC50 relative to NL4-3, ARP-11808: 1
[7]
  EC50 fold change compared to wild type NL4-3, A128T: 2
  EC50 fold change compared to wild type NL4-3, H171Q: 6
  EC50 fold change compared to wild type NL4-3, N222K: 3
  EC50 fold change compared to wild type NL4-3, T174I: 323
  EC50 fold change compared to wild type NL4-3, Y99H: 4
[8]
  IC50: 14 ± 5 nM
[9]
  IC50: 32 ± 14 nM
